Measurements taken from US11602520B2, “c-Met regulatory composition and its method for treating liver disease” (priority 2020, dated 2023).

Legend:
[1] = test system: Normal hepatocytes of FL83B mice; experiment: Cell viability analysis (1), normal hepatocytes, MTS kit; format: cell-based; conditions: for Cell viability (%, relative to the blank group): 24 hours
Experimental: (§1) Normal hepatocytes of FL83B mice are divided into several groups (FL83B 1×10^4 cells/well), an amount of cells in each of the groups is treated under different conditions respectively and cultured for 24 hours. Then, the commercially available MTS cell viability analysis kit (CellTiter-Glo® One Solution Assay) is used to analyze the cell viability of each of the groups, the treatment condition of each of the groups of cells and the corresponding survival rate are shown in Table 1 to Table 3 below.

[2] = test system: Normal hepatocytes of FL83B mice treated with 10 mM acetaminophen (damaged hepatic cells); experiment: Cell viability analysis (2), hepatocytes damaged with 10 mM acetaminophen; format: cell-based; conditions: after acetaminophen damage
Experimental: (§2) Normal hepatocytes of FL83B mice are divided into several groups (FL83B 1×10^4 cells/well), and treated with 10 mM acetaminophen for 24 hours respectively to make the hepatic cells in a damaged state, the acetaminophen is removed and then the hepatic cells are treated with different concentrations of the Antrodin A and/or the DMB for 24 hours. Then, the commercially available MTS cell viability analysis kit (CellTiter-Glo® One Solution Assay) is used to analyze the cell viability of each of the groups, the treatment condition of each of the groups of cells and the corresponding survival rate are shown in Table 4 to Table 6 below.

c-Met = experiment: Gene expression analysis, real-time qPCR, c-Met; format: cell-based, mice
Experimental: as §2
(§3) Real-time qPCR kits are used to analyze the gene expression in cells treated with different concentrations of the Antrodin A and the DMB in Example 2, and the results are shown in Tables 7 to 9 below.

Notch-2 = experiment: Gene expression analysis, real-time qPCR, Notch-2 RNA; format: cell-based, mice
Experimental: as §2, §3

[3] = Cell viability analysis (1), normal hepatocytes, MTS kit; format: cell-based, mice; conditions: mouse, FL83B normal hepatocytes, 24 hours, read-out: Cell viability (%, relative to the blank group)
Experimental: as §1

CC(C)=CCOc1ccc(C2=C(CC(C)C)C(=O)OC2=O)cc1 [Antrodin A]
Cell viability (%, relative to the blank group) ([1]; Antrodin A 8.75 ppm): 95.8 ± 4.8% | Cell viability (%, relative to the blank group) ([1]; Antrodin A 17.5 ppm): 107.1 ± 1.2% | Cell viability (%, relative to the blank group) ([1]; Antrodin A 35 ppm): 106.8 ± 6.5% | Cell viability (%, relative to the blank group) ([1]; Antrodin A 70 ppm): 108.5 ± 5.7% | Cell viability (%, relative to the blank group) ([1]; Antrodin A 140 ppm): 50.8 ± 4.4% | activity and survival rate of the normal hepatic cells (in words) ([1]; concentration of 8.75 to 70 ppm): capable of effectively maintaining and enhancing the activity and survival rate of the normal hepatic cells | toxicity to hepatic cells (in words) ([1]; concentration of 140 ppm): toxic to hepatic cells | repair of damaged hepatic cells (in words) [2]: capable of repairing the damaged hepatic cells and increasing the activity of the hepatic cells | Cell viability (%, relative to the blank group) ([2]; Antrodin A 17.5 ppm, 24 hours): 101.9 ± 10.7% | Cell viability (%, relative to the blank group) ([2]; Antrodin A 35 ppm, 24 hours): 90.2 ± 9.9% | Cell viability (%, relative to the blank group) ([2]; Antrodin A 70 ppm, 24 hours): 102.7 ± 3.3% | expression level of c-Met in damaged hepatic cells (in words) (c-Met): increase the expression levels of c-Met and Notch | expression level of Notch in damaged hepatic cells (in words) (Notch-2): increase the expression levels of c-Met and Notch

COc1cc(C)c(OC)c2c1OCO2 [DMB, 4,7-Dimethoxy-5-methyl-1,3-benzodioxole]
viability at 24 h, 1.25 ppm ([3]; DMB 1.25 ppm): 112 ± 2.4% | viability at 24 h, 2.5 ppm ([3]; DMB 2.5 ppm): 114 ± 1.5% | viability at 24 h, 5 ppm ([3]; DMB 5 ppm): 115 ± 2% | viability at 24 h, 10 ppm ([3]; DMB 10 ppm): 113 ± 3.4% | viability at 24 h, 20 ppm ([3]; DMB 20 ppm): 111 ± 4% | toxicity to the normal hepatic cells (in words) ([1]; various concentrations): does not cause toxicity to the normal hepatic cells | viability at 2.5 ppm ([2]; Mus musculus, FL83B, DMB 2.5 ppm, 24 hours, read-out: Cell viability (%, relative to the blank group)): 114 ± 3.9% | viability at 5 ppm ([2]; Mus musculus, FL83B, DMB 5 ppm, 24 hours, read-out: Cell viability (%, relative to the blank group)): 104 ± 4.4% | viability at 10 ppm ([2]; Mus musculus, FL83B, DMB 10 ppm, 24 hours, read-out: Cell viability (%, relative to the blank group)): 78.2 ± 8.8% | viability at 17.5 ppm ([2]; Mus musculus, FL83B, DMB 17.5 ppm, 24 hours, read-out: Cell viability (%, relative to the blank group)): 103 ± 7.7% | repair of damaged hepatic cells (in words) [2]: capable of repairing the damaged hepatic cells and increasing the activity of the hepatic cells | expression level of c-Met in damaged hepatic cells (in words) (c-Met): increase the expression levels of c-Met and Notch | expression level of Notch in damaged hepatic cells (in words) (Notch-2): increase the expression levels of c-Met and Notch
